Data from US20230398114A1, “METHODS OF TREATING CORONAVIRUS DISEASE AND COMPOUNDS FOR SAME” (priority 2020, published 2023).
Several values for one entry are separate records, joined by “and”; a condition that tells them apart may be missing. Equal entries are not always repeated. Where two headings read alike, the source gives them in different places.

How the values were obtained:
[1] = test system: USA-WA1/2020 (SARS-CoV-2) virus; type: in vivo, K18-hACE2 mice; settings: for Viral content by lung RT-qPCR, Log10, group AVG / Viral content by lung RT-qPCR, Mean Result, group AVG: day 6, 7 mice per group; for Viral content by lung RT-qPCR, Log10, group AVG / Viral content by lung RT-qPCR, Mean Result, group AVG / Viral content by lung RT-qPCR, Log10 (individual animals) / Viral content by lung RT-qPCR, Mean Result (individual animals): Imatinib 100 mg/kg, Niclosamide 200 mg/kg, alone or combined; for Viral content by lung RT-qPCR, Log10 (individual animals) / Viral content by lung RT-qPCR, Mean Result (individual animals): day 6, oral gavage once daily, Mebendazole 50 mg/kg
[2] = test system: USA-WA1/2020 (SARS-CoV-2) virus; type: in vivo, K18-hACE2 mice; settings: for Lung (log10 TCID50/mL), group AVG: day 6, 7 mice per group, Mebendazole 50 mg/kg po; for Lung (log10 TCID50/mL), group AVG / Lung (log10 TCID50/mL), individual animals: Imatinib 100 mg/kg, Niclosamide 200 mg/kg, alone or combined; for Lung (log10 TCID50/mL), individual animals: day 6, Mebendazole 50 mg/kg po once daily
[3] = test system: NR-53516 SARS-Related Coronavirus 2 Isolate New York—PV09158/2020; type: cell-based, SARS-CoV-2; settings: Vero-76 cells, after 4 days
[4] = test system: SARS-CoV-2 (USA-WA1/2020 Isolate); assay: microbe, parasite or virus in culture; type: cell-based; settings: Calu-3 cells
SARS-CoV-2 = settings: human hepatoma cell line (Huh 7.5 cells) infected with SARS-CoV-2; cited from earlier work
[5] = cited from earlier work
[6] = test system: Vero 76 African green monkey kidney cells; settings: Vero 76 cells, any concentration tested up to 100 μM
Calu-3 = Calu-3 cells, any concentration tested up to 100 μM
[7] = target: Mast/stem cell growth factor receptor Kit (Homo sapiens, UniProt P10721); settings: cited from earlier work
Mast/stem cell growth factor receptor Kit, sequence (P10721 26-976, species assumed): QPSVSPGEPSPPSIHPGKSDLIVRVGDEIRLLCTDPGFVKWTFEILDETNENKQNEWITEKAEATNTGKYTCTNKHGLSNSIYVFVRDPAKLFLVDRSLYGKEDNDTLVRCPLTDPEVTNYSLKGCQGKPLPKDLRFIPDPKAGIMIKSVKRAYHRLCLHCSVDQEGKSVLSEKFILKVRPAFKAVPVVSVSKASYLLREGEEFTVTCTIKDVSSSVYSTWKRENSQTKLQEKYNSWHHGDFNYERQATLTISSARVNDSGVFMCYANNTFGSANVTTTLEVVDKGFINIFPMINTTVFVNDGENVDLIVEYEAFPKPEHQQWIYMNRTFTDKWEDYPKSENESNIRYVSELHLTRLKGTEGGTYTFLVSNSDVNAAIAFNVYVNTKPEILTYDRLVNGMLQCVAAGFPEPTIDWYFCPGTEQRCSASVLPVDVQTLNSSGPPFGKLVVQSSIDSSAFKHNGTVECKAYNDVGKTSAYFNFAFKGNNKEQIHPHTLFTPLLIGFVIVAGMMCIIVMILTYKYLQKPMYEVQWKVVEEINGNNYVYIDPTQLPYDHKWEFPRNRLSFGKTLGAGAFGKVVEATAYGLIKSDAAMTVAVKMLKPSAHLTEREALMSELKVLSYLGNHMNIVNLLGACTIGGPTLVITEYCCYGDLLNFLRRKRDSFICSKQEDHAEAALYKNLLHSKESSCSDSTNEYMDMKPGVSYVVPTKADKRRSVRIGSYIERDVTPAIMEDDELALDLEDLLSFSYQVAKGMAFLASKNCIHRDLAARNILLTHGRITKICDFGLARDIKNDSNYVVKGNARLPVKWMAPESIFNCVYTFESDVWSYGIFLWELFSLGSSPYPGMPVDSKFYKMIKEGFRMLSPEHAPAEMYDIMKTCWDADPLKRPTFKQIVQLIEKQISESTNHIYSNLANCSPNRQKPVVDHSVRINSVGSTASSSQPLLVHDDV

[8] = oral Imatinib dose of 400 mg/day; cited from earlier work
human coronavirus NL63 = settings: microtubule inhibitor, compared with actin inhibitors; cited from earlier work
[9] = day 6, Mebendazole 50 mg/kg po, alone or with Imatinib 100 mg/kg po

O=C(Nc1ccc([N+](=O)[O-])cc1Cl)c1cc(Cl)ccc1O [Niclosamide]
Viral content by lung RT-qPCR, Log10, group AVG ([1]; Mebendazole 50 mg/kg po): 7.7
Viral content by lung RT-qPCR, Mean Result, group AVG ([1]; Mebendazole 50 mg/kg po): 8.46E+07
Viral content by lung RT-qPCR, Log10 (individual animals) [1]: 7.6 and 6.7 and 7.5 (2×) and 8.0 and 8.5 and 7.9
Viral content by lung RT-qPCR, Mean Result (individual animals) [1]: 4.28E+07 and 5.54E+06 and 3.04E+07 and 9.85E+07 and 3.08E+08 and 7.72E+07 and 2.97E+07
Lung (log10 TCID50/mL), group AVG [2]: 6.1 log10 TCID50/mL
Lung (log10 TCID50/mL), individual animals [2]: 6.3 log10 TCID50/mL and 5.5 log10 TCID50/mL (3×) and 8.5 log10 TCID50/mL and 6.8 log10 TCID50/mL and 4.3 log10 TCID50/mL

COc1cc2ncnc(Nc3ccc(F)c(Cl)c3)c2cc1OCCCN1CCOCC1 [Gefitinib]
reduction in viral load (Average Virus TCID50/ml*10^6) ([3]; 50 nano molar): 53.54%

COC(=O)Nc1nc2ccc(C(=O)c3ccccc3)cc2[nH]1 [Mebendazole]
inhibition of SARS-CoV-2 (in words) ([4]; 2.3-5000 nM): Complete or near complete inhibition
EC50 ([4]; Severe acute respiratory syndrome coronavirus 2, 24 h pretreatment, read 48 h after inoculation, MOI 0.005, read-out: EC50, inhibition of SARS-CoV-2): 102 nM
Viral content by lung RT-qPCR, Log10, group AVG ([1]; Mebendazole 50 mg/kg po): 7.8
Viral content by lung RT-qPCR, Mean Result, group AVG ([1]; Mebendazole 50 mg/kg po): 4.36E+07
Viral content by lung RT-qPCR, Log10 (individual animals) [1]: 7.9 (2×) and 7.7 and 7.3 (2×) and 7.6 and 7.5
Viral content by lung RT-qPCR, Mean Result (individual animals) [1]: 7.15E+07 and 4.97E+07 and 7.76E+07 and 1.90E+07 and 2.03E+07 and 3.73E+07 and 2.95E+07
Mean % Reduction of Lung Tissue RT-qPCR Titers vs. the Group Mean of Placebo Treated Mice [1, 9]: 44.2%
Percent Reduction of Lung Tissue RT-qPCR Titers (Individual Animals) vs. the Group Mean of Placebo Treated Mice [1, 9]: 8.45% and 36.36% and 0.64% and 75.67% and 74.01% and 52.24% and 62.23%
Lung (log10 TCID50/mL), group AVG [2]: 5.8 log10 TCID50/mL
Lung (log10 TCID50/mL), individual animals [2]: 6.0 log10 TCID50/mL and 5.3 log10 TCID50/mL (2×) and 4.8 log10 TCID50/mL and 5.5 log10 TCID50/mL and 7.3 log10 TCID50/mL and 6.5 log10 TCID50/mL
antiviral activity compared to the Vero E6 cells (SARS-CoV-2): appeared to be lower
share of a single oral dose that reaches systemic circulation ([5]; humans, extensive first-pass metabolism): less than 10%
elimination half-life ([5]; in vivo): 3 to 6 h
higher exposure at steady-state ([5]; long-term oral administration): ~3 fold
share of an oral dose excreted in urine ([5]; oral dose): < 2%

Cc1ccc(NC(=O)c2ccc(CN3CCN(C)CC3)cc2)cc1Nc1nccc(-c2cccnc2)n1 [Imatinib]
reduction in viral load (Average Virus TCID50/ml*10^6) ([3]; 10 micro molar): 29.6%
Viral content by lung RT-qPCR, Log10, group AVG ([1]; Mebendazole 50 mg/kg po): 7.8
Viral content by lung RT-qPCR, Mean Result, group AVG ([1]; Mebendazole 50 mg/kg po): 9.54E+07
Viral content by lung RT-qPCR, Log10 (individual animals) [1]: 7.6 and 7.7 and 7.9 (2×) and 8.0 and 7.3 and 8.5
Viral content by lung RT-qPCR, Mean Result (individual animals) [1]: 3.67E+07 and 5.37E+07 and 7.80E+07 and 9.13E+07 and 2.15E+07 and 7.53E+07 and 3.12E+08
animals positively affected (lung TCID50) ([2]; day 6, 7 animals per group): a single animal
Lung (log10 TCID50/mL), group AVG [2]: 7.4 log10 TCID50/mL
Lung (log10 TCID50/mL), individual animals [2]: 8.3 log10 TCID50/mL and 7.5 log10 TCID50/mL and 5.3 log10 TCID50/mL and 7.6 log10 TCID50/mL and 8.5 log10 TCID50/mL and 8.0 log10 TCID50/mL and 6.5 log10 TCID50/mL
cytotoxicity (MTT) [6]: no cytotoxicity was observed
cytotoxicity (MTT) (Calu-3): no cytotoxicity was observed
known to target (value in brackets, measure not stated) [7]: 16 nM
expected trough plasma concentration [8]: 1.7 µM

COC(=O)Nc1nc2ccc(C(=O)c3cccs3)cc2[nH]1 [nocodazole]
reduction of virus entry (human coronavirus NL63): did not

CNC(=O)c1ccccc1Sc1ccc2c(/C=C/c3ccccn3)n[nH]c2c1 [Axitinib]
reduction in viral load (Average Virus TCID50/ml*10^6) ([3]; 500 nano molar): 66.4%

COc1cc(Nc2c(C#N)cnc3cc(OCCCN4CCN(C)CC4)c(OC)cc23)c(Cl)cc1Cl [Bosutinib]
reduction in viral load (Average Virus TCID50/ml*10^6) ([3]; 50 nano molar): 47.3%
